Patent US20260152487A1 (Sitryx Therapeutics Limited, priority 2021, published 2026)
pEC50: −log10 of the molar value.

Target: T1, recombinant human PKM2 (Homo sapiens, UniProt P14618)
T1 construct: His (N); purchased R&D Systems
Assay: Human PKM2 activation assay (Kinase-Glo Plus luminescent detection of generated ATP)
Type: biochemical
Settings: for Emax: percentage activation normalised to DMSO vehicle (LOW) and 5 μM TEPP-46 (HIGH), read-out: hPKM2 Emax; for pEC50: recombinant human PKM2 activation, 4-parameter logistic fit, read-out: hPKM2 EC50
In short: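 Luminescent ATP detection (Kinase-Glo Plus, 15 min, 26 °C) followed a 60 min, 26 °C shaken reaction of compound with […] His-tagged human PKM2, PEP and ADP in imidazole/KCl/MgCl2 buffer with Tween20 and BSA, pH 7.2.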

T1 sequence (P14618 2-531 limits assumed): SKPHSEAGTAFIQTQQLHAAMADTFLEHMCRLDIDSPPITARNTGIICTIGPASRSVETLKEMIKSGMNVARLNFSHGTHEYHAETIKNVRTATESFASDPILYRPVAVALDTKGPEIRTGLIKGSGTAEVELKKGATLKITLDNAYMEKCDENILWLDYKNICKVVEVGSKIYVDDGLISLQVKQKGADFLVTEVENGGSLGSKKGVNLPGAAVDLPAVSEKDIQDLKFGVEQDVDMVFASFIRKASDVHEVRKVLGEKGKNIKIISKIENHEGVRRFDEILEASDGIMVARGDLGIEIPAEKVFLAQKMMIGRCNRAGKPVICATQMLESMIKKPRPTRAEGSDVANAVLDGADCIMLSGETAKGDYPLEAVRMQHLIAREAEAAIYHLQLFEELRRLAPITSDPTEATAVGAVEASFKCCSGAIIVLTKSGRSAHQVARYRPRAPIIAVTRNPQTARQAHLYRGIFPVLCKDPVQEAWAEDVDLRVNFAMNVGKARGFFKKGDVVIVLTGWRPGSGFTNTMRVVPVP

Emax [%]	pEC50	Compound
98.9	6.80	COc1cccc(Cn2ncc3cc(S(=O)(=O)c4ccccc4)ccc3c2=O)c1C(N)=O [Example 92, 2-methoxy-6-((1-oxo-6-(phenylsulfonyl)phthalazin-2(1H)-yl)methyl)benzamide]
91.4	6.96	COc1ccc(F)c(Cn2ncc3cc(S(=O)(=O)c4ccn(C)n4)ccc3c2=O)c1 [Example 199, 2-(2-fluoro-5-methoxybenzyl)-6-((1-methyl-1H-pyrazol-3-yl)sulfonyl)phthalazin-1(2H)-one]
109	7.07	Cn1ccc(Cn2ncc3c(F)c(S(=O)(=O)c4ccccc4)ccc3c2=O)n1 [Example 243, 5-fluoro-2-((1-methyl-1H-pyrazol-3-yl)methyl)-6-(phenylsulfonyl)phthalazin-1(2H)-one]
112	6.34	O=c1c2ccc(S(=O)(=O)c3ccccc3)cc2cnn1Cc1ccn(C2COC2)n1 [Example 273, 2-((1-(oxetan-3-yl)-1H-pyrazol-3-yl)methyl)-6-(phenylsulfonyl)phthalazin-1(2H)-one]
71.3	7.23	COc1ccc(Cn2ncc3cc(S(=O)(=O)c4cc(C)ns4)ccc3c2=O)cn1 [Example 148, 2-((6-methoxypyridin-3-yl)methyl)-6-(3-methylisothiazol-5-ylsulfonyl)phthalazin-1(2H)-one]
114	6.84	Nc1cccc(Cn2ncc3cc(S(=O)(=O)c4ccccn4)ccc3c2=O)c1 [Example 144, 2-(3-aminobenzyl)-6-(pyridin-2-ylsulfonyl)phthalazin-1(2H)-one]
93.1	6.94	NC(=O)c1cccc(Cn2ncc3cc(S(=O)(=O)c4ccccc4)ccc3c2=O)c1 [Example 84, 3-((1-oxo-6-(phenylsulfonyl)phthalazin-2(1H)-yl)methyl)benzamide]
122	7.15	O=c1c2ccc(S(=O)(=O)c3ccccc3)cc2cnn1Cc1cc2n(n1)CCO2 [Example 27, 2-((2,3-dihydropyrazolo[5,1-b]oxazol-6-yl)methyl)-6-(phenylsulfonyl)phthalazin-1(2H)-one]
77.3	6.35	COc1ccc(Cn2ncc3cc([S@@](=N)(=O)c4ccccc4)ccc3c2=O)cn1 (single isomer, unassigned) [Example 133]
83.5	6.32	Cn1cc(S(=O)(=O)c2cnc3c(=O)n(Cc4cc[nH]n4)ncc3c2)cn1 [Example 267, 7-((1H-pyrazol-3-yl)methyl)-3-((1-methyl-1H-pyrazol-4-yl)sulfonyl)pyrido[2,3-d]pyridazin-8(7H)-one]
107	7.50	O=c1c2ccc(S(=O)(=O)c3cn[nH]c3)cc2cnn1Cc1ccc2c(n1)OCCO2 [Example 344]
93.3	6.78	Cc1cc(Cn2ncc3cc(S(=O)(=O)c4cnn(C)c4)ncc3c2=O)n[nH]1 [Example 331]
112	6.58	N#Cc1sccc1Cn1ncc2cc(S(=O)(=O)c3ccccc3)ccc2c1=O [Example 23, 3-((1-oxo-6-(phenylsulfonyl)phthalazin-2(1H)-yl)methyl)thiophene-2-carbonitrile]
98.2	6.91	COc1ccc(Cn2ncc3cc(S(=O)(=O)c4ccccc4)ccc3c2=O)cc1 [Example 49, 2-(4-methoxybenzyl)-6-(phenylsulfonyl)phthalazin-1(2H)-one]
99.1	6.15	Cc1cc(Cn2ncc3cc(S(=O)(=O)c4ccccc4)ccc3c2=O)sn1 [Example 97, 2-((3-methylisothiazol-5-yl)methyl)-6-(phenylsulfonyl)phthalazin-1(2H)-one]
96.7	7.37	O=c1c2ccc(S(=O)(=O)c3csc(C4CC4)n3)cc2cnn1Cc1cc[nH]n1 [Example 346]
97.2	7.15	COc1ccc(Cn2ncc3cc(S(=O)(=O)c4ccc(OC)nc4)ccc3c2=O)cn1 [Example 175, 2-((6-methoxypyridin-3-yl)methyl)-6-(6-methoxypyridin-3-ylsulfonyl)phthalazin-1(2H)-one]
81.9	6.89	COc1ccc(S(=N)(=O)c2ccc3c(=O)n(Cc4ccc(OC)nc4)ncc3c2)cc1 (racemic) [Example 137, 6-(4-methoxyphenylsulfonimidoyl)-2-((6-methoxypyridin-3-yl)methyl)phthalazin-1(2H)-one]
101	7.09	COc1ccc(Cn2ncc3cc(S(=O)(=O)c4cccc(OC(F)F)c4)ccc3c2=O)cn1 [Example 170, 6-(3-(difluoromethoxy)phenylsulfonyl)-2-((6-methoxypyridin-3-yl)methyl)phthalazin-1(2H)-one]
105	6.61	COc1cccc(S(=O)(=O)c2ccc3c(=O)n(Cc4cc[nH]n4)ncc3c2)n1 [Example 286, 2-((1H-pyrazol-3-yl)methyl)-6-((6-methoxypyridin-2-yl)sulfonyl)phthalazin-1(2H)-one]
104	6.64	Cn1cc(S(=O)(=O)c2ccc3c(=O)n(Cc4cc(F)[nH]n4)ncc3c2)cn1 [Example 322]
77.5	6.34	COc1ccnc(S(=O)(=O)c2ccc3c(=O)n(Cc4ccc(OC)nc4)ncc3c2)c1 [Example 165, 6-(4-methoxypyridin-2-ylsulfonyl)-2-((6-methoxypyridin-3-yl)methyl)phthalazin-1(2H)-one]
118	6.74	O=c1c2ccc(S(=O)(=O)c3cc4c(cn3)OCCO4)cc2cnn1Cc1cc[nH]n1 [Example 230, 2-((1H-pyrazol-3-yl)methyl)-6-((2,3-dihydro-[1,4]dioxino[2,3-c]pyridin-7-yl)sulfonyl)phthalazin-1(2H)-one]
98.8	7.02	COc1ccc(Cn2ncc3cc(S(=O)(=O)c4ccc(F)cc4)ccc3c2=O)cn1 [Example 147, 6-((4-fluorophenyl)sulfonyl)-2-((6-methoxypyridin-3-yl)methyl)phthalazin-1(2H)-one]
91.9	6.40	O=c1c2ccc(S(=O)(=O)c3cnc4c(c3)OCCO4)cc2cnn1Cc1cc[nH]n1 [Example 234, 2-((1H-pyrazol-3-yl)methyl)-6-((2,3-dihydro-[1,4]dioxino[2,3-b]pyridin-7-yl)sulfonyl)phthalazin-1(2H)-one]
95.2	6.73	Cc1cccc(Cn2ncc3cc(S(=O)(=O)c4c[nH]nc4Cl)ccc3c2=O)n1 [Example 318]
93.7	6.85	COc1ccc(Cn2ncc3cc(S(=O)(=O)c4cccc(Cl)c4)ccc3c2=O)cn1 [Example 154, 6-((3-chlorophenyl)sulfonyl)-2-((6-methoxypyridin-3-yl)methyl)phthalazin-1(2H)-one]

Compound	Emax [%]	pEC50
COc1ccc(Cn2ncc3cc(S(=O)(=O)c4cccc5[nH]ncc45)ccc3c2=O)cn1 [Example 123, 6-((1H-indazol-4-yl)sulfonyl)-2-((6-methoxypyridin-3-yl)methyl)phthalazin-1(2H)-one]	74.4	6.91
COc1ccc(Cn2ncc3cc(S(=O)(=O)c4ccc(C)cn4)ccc3c2=O)cn1 [Example 115, 2-((6-methoxypyridin-3-yl)methyl)-6-(5-methylpyridin-2-ylsulfonyl)phthalazin-1(2H)-one]	69.8	6.56
